Measurements published in patent US11021493B2, “1,4-thiazine dioxide and 1,2,4-thiadiazine dioxide derivatives as beta-secretase inhibitors and methods of use” (AMGEN INC., priority 2016, dated 2021).

Legend:
BACE1 [1] = biological target: T1, BACE1 (Homo sapiens (Human), UniProt P56817); assay: In vitro BACE1 cell-based assay (Aβ40 in conditioned medium of cells stably expressing APP, HTRF)
Target sequence in this assay (P56817 46-501, species assumed): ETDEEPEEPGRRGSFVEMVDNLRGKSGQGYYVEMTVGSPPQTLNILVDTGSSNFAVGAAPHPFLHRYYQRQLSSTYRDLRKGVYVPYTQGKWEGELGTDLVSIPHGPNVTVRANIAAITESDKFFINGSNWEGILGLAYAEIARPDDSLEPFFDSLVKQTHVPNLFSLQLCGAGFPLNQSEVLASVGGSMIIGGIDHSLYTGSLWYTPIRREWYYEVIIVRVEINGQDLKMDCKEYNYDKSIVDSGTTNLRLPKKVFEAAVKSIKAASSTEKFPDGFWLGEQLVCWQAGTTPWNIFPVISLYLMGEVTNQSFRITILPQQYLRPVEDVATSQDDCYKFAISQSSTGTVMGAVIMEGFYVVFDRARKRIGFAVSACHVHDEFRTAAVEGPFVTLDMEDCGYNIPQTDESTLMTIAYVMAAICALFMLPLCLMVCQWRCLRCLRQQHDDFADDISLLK

BACE1 [2] = biological target: T1, BACE1; assay: In vitro enzymatic BACE1 FRET assay; type: biochemical; details: read-out: BACE1 Enzyme IC50
Target sequence in this assay (P56817 46-501): as the sequence (P56817 46-501, species assumed) above

human recombinant BACE2 = human recombinant BACE2 (Homo sapiens (Human), UniProt Q9Y5Z0); assay: In vitro enzymatic BACE2 FRET assay; type: biochemical; details: read-out: BACE2 Enzyme IC50
Sequence of human recombinant BACE2 (Q9Y5Z0 63-518): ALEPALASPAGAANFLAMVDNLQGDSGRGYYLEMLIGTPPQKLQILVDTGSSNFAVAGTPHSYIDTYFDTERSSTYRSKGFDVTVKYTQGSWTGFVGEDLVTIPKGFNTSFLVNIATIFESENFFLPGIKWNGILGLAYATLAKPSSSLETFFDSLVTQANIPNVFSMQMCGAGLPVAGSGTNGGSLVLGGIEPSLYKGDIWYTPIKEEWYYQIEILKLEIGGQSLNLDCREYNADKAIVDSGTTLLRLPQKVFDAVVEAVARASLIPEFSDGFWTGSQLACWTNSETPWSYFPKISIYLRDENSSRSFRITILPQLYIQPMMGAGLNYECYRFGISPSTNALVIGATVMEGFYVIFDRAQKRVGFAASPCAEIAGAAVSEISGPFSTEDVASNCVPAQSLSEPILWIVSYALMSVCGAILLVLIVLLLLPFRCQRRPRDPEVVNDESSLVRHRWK

Cathepsin D (CatD) = Cathepsin D (CatD) (Homo sapiens (Human), UniProt P07339); assay: In vitro enzymatic Cathepsin D (CatD) FRET assay; type: biochemical; details: read-out: Cat D Enzyme IC50
Sequence of Cathepsin D (CatD) (P07339 65-412, species assumed): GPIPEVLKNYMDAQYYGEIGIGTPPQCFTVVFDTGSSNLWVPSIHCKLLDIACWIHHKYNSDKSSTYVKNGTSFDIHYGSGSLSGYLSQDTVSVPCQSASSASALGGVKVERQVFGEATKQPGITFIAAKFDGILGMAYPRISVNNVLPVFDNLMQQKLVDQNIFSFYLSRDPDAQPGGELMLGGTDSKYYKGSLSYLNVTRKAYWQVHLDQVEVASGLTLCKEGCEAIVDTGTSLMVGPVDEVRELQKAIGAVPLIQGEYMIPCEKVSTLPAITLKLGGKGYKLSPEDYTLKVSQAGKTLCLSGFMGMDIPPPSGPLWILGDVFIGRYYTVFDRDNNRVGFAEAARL

[3] = Aβ40 in conditioned media after 24 h incubation

`C#CCOc1cnc(/C(F)=C/c2ccc(F)c([C@@]3(C)N=C(N)C(C)(C)S(=O)(=O)[C@H]3F)c2)cn1` (single isomer, unassigned) [Example 200] showed an IC50 (BACE1 [1]) of 206 nM, an IC50 (BACE1 [2]) of 18 nM and an IC50 (human recombinant BACE2) of 86 nM.

Work on `C#CCOc1cnc(/C(F)=C/c2ccc(F)c([C@@]3(C)N=C(N)C(C)(C)S(=O)(=O)[C@@H]3F)c2)cn1` (single isomer, unassigned) [Example 201] yielded an IC50 (BACE1 [1]) of 214 nM, an IC50 (BACE1 [2]) of 6 nM and an IC50 (human recombinant BACE2) of 82 nM.

With `C[C@]1(c2cc(/C=C(\F)c3ccc(Br)cn3)ccc2F)N=C(N)C2(CF)CC[C@@H]1S2(=O)=O` (stereo in doubt) [Example 101, (1R,4R,5S)-2-amino-4-(5-((Z)-2-(5-bromopyridin-2-yl)-2-fluorovinyl)-2-fluorophenyl)-1-(fluoromethyl)-4-methyl-8-thia-3-azabicyclo[3.2.1]oct-2-ene 8,8-dioxide] the IC50 (BACE1 [1]; [3]) was 79 nM, the IC50 (BACE1 [2]) was 5 nM and the IC50 (human recombinant BACE2) was 13 nM.

For `C#CCOc1cnc(/C(F)=C/c2ccc(F)c([C@]3(C)CS(=O)(=O)N(C)C(N)=N3)c2)cn1` [Example 112, (R,Z)-3-amino-5-(2-fluoro-5-(2-fluoro-2-(5-(prop-2-yn-1-yloxy)pyrazin-2-yl)vinyl)phenyl)-2,5-dimethyl-5,6-dihydro-2H-1,2,4-thiadiazine 1,1-dioxide], the IC50 (BACE1 [1]) was 8 nM, the IC50 (BACE1 [2]) was 3 nM and the IC50 (Cathepsin D (CatD)) was 35800 nM.

`CN1C(N)=N[C@](C)(c2cc(/C=C(\F)c3cnc(OCc4ncco4)cn3)ccc2F)CS1(=O)=O` [Example 116, (R,Z)-3-amino-5-(2-fluoro-5-(2-fluoro-2-(5-(oxazol-2-ylmethoxy)pyrazin-2-yl)vinyl)phenyl)-2,5-dimethyl-5,6-dihydro-2H-1,2,4-thiadiazine 1,1-dioxide] showed an IC50 (BACE1 [1]; [3]) of 1 nM, an IC50 (BACE1 [2]) of 3 nM and an IC50 (human recombinant BACE2) of 45 nM.

`CC1(C)C(N)=N[C@](C)(c2cc(/C=C(\F)c3cnc(Cl)cn3)cc(F)c2F)CS1(=O)=O` [Example 193, (R,Z)-5-amino-3-(5-(2-(5-chloropyrazin-2-yl)-2-fluorovinyl)-2,3-difluorophenyl)-3,6,6-trimethyl-3,6-dihydro-2H-1,4-thiazine 1,1-dioxide] showed an IC50 (BACE1 [1]; [3]) of 833 nM, an IC50 (BACE1 [2]) of 121 nM and an IC50 (Cathepsin D (CatD)) of 82300 nM.

Compound `C#CCOc1cnc(/C(F)=C/c2ccc(F)c([C@@]3(C)N=C(N)C(C)(C)S(=O)(=O)C3(F)F)c2)cn1` [Example 202, (R,Z)-5-amino-2,2-difluoro-3-(2-fluoro-5-(2-fluoro-2-(5-(prop-2-yn-1-yloxy)pyrazin-2-yl)vinyl)phenyl)-3,6,6-trimethyl-3,6-dihydro-2H-1,4-thiazine 1,1-dioxide] has an IC50 (BACE1 [1]) of 9570 nM, an IC50 (BACE1 [2]) of 166 nM and an IC50 (human recombinant BACE2) of 870 nM.

In the case of `Cc1cc(COc2cnc(/C(F)=C/c3cc(F)c(F)c([C@]4(C)CS(=O)(=O)N(C)C(N)=N4)c3)cn2)on1` [Example 221, (R,Z)-3-amino-5-(2,3-difluoro-5-(2-fluoro-2-(5-((3-methylisoxazol-5-yl)methoxy)pyrazin-2-yl)vinyl)phenyl)-2,5-dimethyl-5,6-dihydro-2H-1,2,4-thiadiazine 1,1-dioxide], the IC50 (BACE1 [1]) is reported as 215 nM, the IC50 (BACE1 [2]) is reported as 38 nM and the IC50 (human recombinant BACE2) is reported as 197 nM.

`CN1C(N)=N[C@](C)(c2cc(/C=C(\F)c3cnc(OCC#CCO)cn3)ccc2F)CS1(=O)=O` [Example 252, (R,Z)-3-amino-5-(2-fluoro-5-(2-fluoro-2-(5-((4-hydroxybut-2-yn-1-yl)oxy)pyrazin-2-yl)vinyl)phenyl)-2,5-dimethyl-5,6-dihydro-2H-1,2,4-thiadiazine 1,1-dioxide] gave an IC50 (BACE1 [1]; [3]) of 7 nM, an IC50 (BACE1 [2]) of 10 nM and an IC50 (human recombinant BACE2) of 56 nM.

Work on `C[C@]1(c2cc(/C=C(/F)C3CCCO3)ccc2F)N=C(N)[C@@]2(CF)CC[C@@H]1S2(=O)=O` (stereo partly drawn) [Example 278, (1R,4R,5S)-2-amino-4-(2-fluoro-5-((E)-2-fluoro-2-(tetrahydrofuran-2-yl)vinyl)phenyl)-1-(fluoromethyl)-4-methyl-8-thia-3-azabicyclo[3.2.1]oct-2-ene 8,8-dioxide] yielded an IC50 (BACE1 [1]; [3]) of 1980 nM and an IC50 (BACE1 [2]) of 1110 nM.
